Experimental findings from patent US20260364184A1, “COMPOUND BASED ON OXOISOINDOLINYL-SUBSTITUTED TETRAHYDROPYRIMIDINE-DIONE AND USE THEREOF” (GLUETACS THERAPEUTICS (SHANGHAI) CO., LTD., priority 2023, published 2026) are described below.

Molecules are shown by their SMILES.

The assay deals with T1, EGFR (Homo sapiens, UniProt P00533).
T1 construct: L858R/T790M in cis, heterozygous with wild type), Western blot
T1 sequence (P00533 25-1210): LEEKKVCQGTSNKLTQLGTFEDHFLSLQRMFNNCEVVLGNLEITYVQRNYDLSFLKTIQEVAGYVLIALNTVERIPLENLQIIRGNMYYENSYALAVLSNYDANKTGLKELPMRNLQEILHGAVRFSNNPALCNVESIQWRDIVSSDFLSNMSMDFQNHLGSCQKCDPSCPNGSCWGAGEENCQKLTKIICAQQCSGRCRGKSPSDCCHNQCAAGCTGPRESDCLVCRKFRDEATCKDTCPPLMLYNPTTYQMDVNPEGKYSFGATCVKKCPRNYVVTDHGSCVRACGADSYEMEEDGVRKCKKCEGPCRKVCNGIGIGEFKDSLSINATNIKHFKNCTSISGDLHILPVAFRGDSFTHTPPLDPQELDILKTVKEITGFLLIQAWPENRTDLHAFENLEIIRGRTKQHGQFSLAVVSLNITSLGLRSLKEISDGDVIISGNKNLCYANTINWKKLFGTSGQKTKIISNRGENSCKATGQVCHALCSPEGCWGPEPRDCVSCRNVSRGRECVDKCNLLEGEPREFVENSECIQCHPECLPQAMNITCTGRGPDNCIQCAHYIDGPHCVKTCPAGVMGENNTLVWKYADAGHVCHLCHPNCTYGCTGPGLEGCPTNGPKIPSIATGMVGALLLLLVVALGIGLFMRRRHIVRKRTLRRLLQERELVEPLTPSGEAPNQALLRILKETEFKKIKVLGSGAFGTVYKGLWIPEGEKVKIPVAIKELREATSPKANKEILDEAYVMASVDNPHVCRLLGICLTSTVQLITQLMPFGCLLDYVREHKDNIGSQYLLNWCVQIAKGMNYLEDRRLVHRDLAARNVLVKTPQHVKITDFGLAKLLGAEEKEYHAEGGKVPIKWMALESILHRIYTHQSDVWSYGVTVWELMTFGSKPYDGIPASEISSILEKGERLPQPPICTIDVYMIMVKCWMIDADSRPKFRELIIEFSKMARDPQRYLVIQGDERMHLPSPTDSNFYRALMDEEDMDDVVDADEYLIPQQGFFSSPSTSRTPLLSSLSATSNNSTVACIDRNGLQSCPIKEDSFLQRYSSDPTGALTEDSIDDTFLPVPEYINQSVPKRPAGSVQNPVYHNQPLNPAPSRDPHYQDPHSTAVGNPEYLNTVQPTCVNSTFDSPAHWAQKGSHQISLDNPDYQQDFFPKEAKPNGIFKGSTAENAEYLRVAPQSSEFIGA
T1 sequence (Q96SW2 whole entry partner): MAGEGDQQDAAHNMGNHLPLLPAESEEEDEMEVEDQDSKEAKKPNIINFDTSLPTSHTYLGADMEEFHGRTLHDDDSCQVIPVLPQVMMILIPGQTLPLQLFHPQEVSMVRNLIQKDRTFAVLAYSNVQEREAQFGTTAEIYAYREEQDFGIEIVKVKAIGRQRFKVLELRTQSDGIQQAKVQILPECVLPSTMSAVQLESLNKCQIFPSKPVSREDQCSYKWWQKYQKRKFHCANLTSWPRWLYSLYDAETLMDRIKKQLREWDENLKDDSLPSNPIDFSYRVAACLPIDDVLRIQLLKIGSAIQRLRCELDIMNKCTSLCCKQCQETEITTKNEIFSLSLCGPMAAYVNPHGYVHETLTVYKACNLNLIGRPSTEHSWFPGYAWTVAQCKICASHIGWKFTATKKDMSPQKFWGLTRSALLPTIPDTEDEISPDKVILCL
As to the kind of experiment: Western blot degradation of EGFR. The format is cell-based. The settings on record: H1975 Cell; 24 hours. On the procedure: Conventional Western blot assay was performed to evaluate the effects of the compounds of the present disclosure on the expression of target proteins in cells.
(1) Cell Seeding and Protein Harvesting: The selected cells were processed according to the cell seeding procedure and protein harvesting procedure in Table II-2.
(2) To the collected supernatant, 5×SDS sample loading buffer was added, followed by denaturation at 95 °C for 5 minutes. The denatured samples were then separated by SDS-PAGE electrophoresis on a polyacrylamide gel. Proteins were transferred to a nitrocellulose membrane (0.45 μm NC membrane), blocked with blocking buffer at room temperature for 1 hour, and subjected to antibody incubation and development procedures according to the antibody manufacturer's instructions (Cell Signaling Technology).
Half-Maximal Degradation Concentration value (the drug concentration required for degrading proteins by 50%, abbreviated as DC50) reads method: comparing the grayscale values of Western blot bands from drug-treated samples with those from blank DMSO-treated controls, and identifying the drug concentration range at which the grayscale value is half that of the DMSO-treated control bands.
DC50 values can be calculated using ImageJ software to measure grayscale values of Western blot bands from drug-treated samples. The concentration-response curve is fitted to estimate the drug concentration corresponding to half the grayscale value.
Target protein remaining (%) refers to the percentage of target protein remaining in cells after treatment with protein degrader compounds.
Calculation method for target protein remaining (%): Use ImageJ software to measure grayscale values of Western blot bands from drug (protein degrader)-treated samples. The grayscale value of drug-treated bands is divided by that of internal control protein bands, and the resulting quotient is normalized to obtain the relative percentage of remaining target protein after protein degrader treatment.
Target protein degradation rate (%)=1−target protein remaining (%).
For orientation: A western blot detects proteins with antibodies after separation by electrophoresis.
For `O=C1CCN(N2Cc3cc(CN4CCN(c5ccc(Nc6ncc7nc(Nc8ccccc8)n(C8CCCC8)c7n6)cc5)CC4)ccc3C2=O)C(=O)N1` [GT-05836, 1-(5-((4-(4-((9-cyclopentyl-8-(phenylamino)-9H-purin-2-yl)amino)phenyl)piperazin-1-yl)methyl)-1-oxoisoindolin-2-yl)dihydropyrimidine-2,4 (1H,3H)-dione], the “Degradation of substrate protein EGFR (substrate protein remaining %)” value (shortened to “Degradation … (substrate protein remaining %)”) is “A (0%≤substrate protein remaining %≤80%)”.
As for `CN(CC1CCN(c2ccc3c(c2)C(=O)N(N2CCC(=O)NC2=O)C3=O)CC1)C1CCN(c2ccc(Nc3ncc4nc(Nc5ccccc5)n(C5CCCC5)c4n3)cc2)CC1` [GT-05843, 5-(4-(((1-(4-((9-cyclopentyl-8-(phenylamino)-9H-purin-2-yl)amino)phenyl)piperidin-4-yl)(methyl)amino)methyl)piperidin-1-yl)-2-(2,4-dioxotetrahydropyrimidin-1(2H)-yl)isoindoline-1,3-dione], the “Degradation … (substrate protein remaining %)” value was “A (0%≤substrate protein remaining %≤80%)”.
Turning to `O=C1CCN(N2Cc3cc(CN4CCN(C5CCN(c6ccc(Nc7ncc8nc(Nc9ccccc9)n(C9CCCC9)c8n7)cc6)CC5)CC4)ccc3C2=O)C(=O)N1` [GT-05914, 1-(5-((4-(1-(4-((9-cyclopentyl-8-(phenylamino)-9H-purin-2-yl)amino)phenyl)piperidin-4-yl)piperazin-1-yl)methyl)-1-oxoisoindolin-2-yl)dihydropyrimidine-2,4 (1H,3H)-dione], the “Degradation … (substrate protein remaining %)” value is “A (0%≤substrate protein remaining %≤80%)”.
For `COc1cc(N2CCN(Cc3ccc4c(c3)CN(N3CCC(=O)NC3=O)C4=O)CC2)c(C)cc1Nc1ncc(Br)c(Nc2ccc3nccnc3c2P(C)(C)=O)n1` [GT-05946, 1-(5-((4-(4-((5-bromo-4-((5-(dimethylphosphoryl)quinoxalin-6-yl)amino)pyrimidin-2-yl)amino)-5-methoxy-2-methylphenyl)piperazin-1-yl)methyl)-1-oxoisoindolin-2-yl)dihydropyrimidine-2,4 (1H,3H)-dione], the “Degradation … (substrate protein remaining %)” value is on record as “A (0%≤substrate protein remaining %≤80%)”.
The value for `O=C1CCN(N2C(=O)c3ccc(N4CCC(CN5CCN(C6CCN(c7ccc(Nc8ncc9nc(Nc%10ccccc%10)n(C%10CCCC%10)c9n8)cc7)CC6)CC5)CC4)cc3C2=O)C(=O)N1` [GT-05955, 5-(4-((4-(1-(4-((9-cyclopentyl-8-(phenylamino)-9H-purin-2-yl)amino)phenyl)piperidin-4-yl)piperazin-1-yl)methyl)piperidin-1-yl)-2-(2,4-dioxotetrahydropyrimidin-1(2H)-yl)isoindoline-1,3-dione] was “A (0%≤substrate protein remaining %≤80%)”.
The value for `COc1cc(N2CCC(N3CCN(Cc4ccc5c(c4)CN(N4CCC(=O)NC4=O)C5=O)CC3)CC2)c(C)cc1Nc1ncc(Br)c(Nc2ccc3nccnc3c2P(C)(C)=O)n1` [GT-05996, 1-(5-((4-(1-(4-((5-bromo-4-((5-(dimethylphosphoryl)quinoxalin-6-yl)amino)pyrimidin-2-yl)amino)-5-methoxy-2-methylphenyl)piperidin-4-yl)piperazin-1-yl)methyl)-1-oxoisoindolin-2-yl)dihydropyrimidine-2,4 (1H,3H)-dione] was “A (0%≤substrate protein remaining %≤80%)”; that for `COc1cc(N2CCC(N3CCN(CC4CCN(c5ccc6c(c5)C(=O)N(N5CCC(=O)NC5=O)C6=O)CC4)CC3)CC2)c(C)cc1Nc1ncc(Br)c(Nc2ccc3nccnc3c2P(C)(C)=O)n1` [GT-05997, 5-(4-((4-(1-(4-((5-bromo-4-((5-(dimethylphosphoryl)quinoxalin-6-yl)amino)pyrimidin-2-yl)amino)-5-methoxy-2-methylphenyl)piperidin-4-yl)piperazin-1-yl)methyl)piperidin-1-yl)-2-(2,4-dioxotetrahydropyrimidin-1(2H)-yl)isoindoline-1,3-dione] was “A (0%≤substrate protein remaining %≤80%)”.
For `COc1cc(N2CCC(N3CCN(CC4CCN(c5cccc6c5C(=O)N(N5CCC(=O)NC5=O)C6=O)CC4)CC3)CC2)c(C)cc1Nc1ncc(Br)c(Nc2ccc3nccnc3c2P(C)(C)=O)n1` [GT-05998, 4-(4-((4-(1-(4-((5-bromo-4-((5-(dimethylphosphoryl)quinoxalin-6-yl)amino)pyrimidin-2-yl)amino)-5-methoxy-2-methylphenyl)piperidin-4-yl)piperazin-1-yl)methyl)piperidin-1-yl)-2-(2,4-dioxotetrahydropyrimidin-1(2H)-yl)isoindoline-1,3-dione], the “Degradation … (substrate protein remaining %)” value is “A (0%≤substrate protein remaining %≤80%)”.
With `CC(C)n1nc(N2CCC(N(C)Cc3ccc4c(c3)CN(N3CCC(=O)NC3=O)C4=O)CC2)c2cnc(Nc3ccnc(-c4cnn(S(=O)(=O)C5CC5)c4)n3)cc21` [GT-06019, 1-(5-(((1-(6-((2-(1-(cyclopropylsulfonyl)-1H-pyrazol-4-yl)pyrimidin-4-yl)amino)-1-isopropyl-1H-pyrazolo[4,3-c]pyridin-3-yl)piperidin-4-yl)(methyl)amino)methyl)-1-oxoisoindolin-2-yl)dihydropyrimidine-2,4 (1H,3H)-dione], the “Degradation … (substrate protein remaining %)” value is on record as “A (0%≤substrate protein remaining %≤80%)”.
For the compound `COC1CCN(c2nccc(Nc3cc4c(cn3)c(N3CCN(CC5CCN(c6cccc7c6C(=O)N(N6CCC(=O)NC6=O)C7=O)CC5)CC3)nn4C(C)C)n2)CC1` [GT-06035, 2-(2,4-dioxotetrahydropyrimidin-1(2H)-yl)-4-(4-((4-(1-isopropyl-6-((2-(4-methoxypiperidin-1-yl)pyrimidin-4-yl)amino)-1H-pyrazolo[4,3-c]pyridin-3-yl)piperazin-1-yl)methyl)piperidin-1-yl)isoindoline-1,3-dione], the “Degradation … (substrate protein remaining %)” value is listed as “A (0%≤substrate protein remaining %≤80%)”.
`CC(C)n1nc(N2CCN(CC3CCN(c4ccc5c(c4)C(=O)N(N4CCC(=O)NC4=O)C5=O)CC3)CC2)c2cnc(Nc3ccnc(-c4cnn(S(=O)(=O)C5CC5)c4)n3)cc21` [GT-06073, 5-(4-((4-(6-((2-(1-(cyclopropylsulfonyl)-1H-pyrazol-4-yl)pyrimidin-4-yl)amino)-1-isopropyl-1H-pyrazolo[4,3-c]pyridin-3-yl)piperazin-1-yl)methyl)piperidin-1-yl)-2-(2,4-dioxotetrahydropyrimidin-1(2H)-yl)isoindoline-1,3-dione]: the “Degradation … (substrate protein remaining %)” value is reported as “A (0%≤substrate protein remaining %≤80%)”.
Regarding `CC(C)n1nc(N2CCC(N3CCN(Cc4ccc5c(c4)CN(N4CCC(=O)NC4=O)C5=O)CC3)CC2)c2cnc(Nc3ccnc(-c4cnn(S(=O)(=O)C5CC5)c4)n3)cc21` [GT-06077, 1-(5-((4-(1-(6-((2-(1-(cyclopropylsulfonyl)-1H-pyrazol-4-yl)pyrimidin-4-yl)amino)-1-isopropyl-1H-pyrazolo[4,3-c]pyridin-3-yl)piperidin-4-yl)piperazin-1-yl)methyl)-1-oxoisoindolin-2-yl)dihydropyrimidine-2,4 (1H,3H)-dione], the “Degradation … (substrate protein remaining %)” value is given as “A (0%≤substrate protein remaining %≤80%)”.
In the case of `COc1cc(N2CCC(N3CCN(Cc4ccc5c(c4)C(=O)N(N4CCC(=O)NC4=O)C5=O)CC3)CC2)c(C)cc1Nc1ncc(Br)c(Nc2ccc3nccnc3c2P(C)(C)=O)n1` [GT-06154, 5-((4-(1-(4-((5-bromo-4-((5-(dimethylphosphoryl)quinoxalin-6-yl)amino)pyrimidin-2-yl)amino)-5-methoxy-2-methylphenyl)piperidin-4-yl)piperazin-1-yl)methyl)-2-(2,4-dioxotetrahydropyrimidin-1(2H)-yl)isoindoline-1,3-dione], the “Degradation … (substrate protein remaining %)” value is listed as “A (0%≤substrate protein remaining %≤80%)”.
Take `CN(Cc1ccc2c(c1)C(=O)N(N1CCC(=O)NC1=O)C2=O)C1CCN(c2ccc(Nc3ncc4nc(Nc5ccccc5)n(C5CCCC5)c4n3)cc2)CC1` [GT-07113, 5-(((1-(4-((9-cyclopentyl-8-(phenylamino)-9H-purin-2-yl)amino)phenyl)piperidin-4-yl)(methyl)amino)methyl)-2-(2,4-dioxotetrahydropyrimidin-1(2H)-yl)isoindoline-1,3-dione]: the “Degradation … (substrate protein remaining %)” value is on record as “A (0%≤substrate protein remaining %≤80%)”.
